Results published in ChEMBL document CHEMBL1201862, “PubChem BioAssay data set” (2004).
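Interpolation was linear, between the two tested concentrations surrounding the appropriate level; five concentrations were tested over 48 hours in 96-well plates. GI50 is the concentration that inhibits growth by half.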 The source made the active and inactive calls. Cut-off read from the data, not from the text of the source: active = GI50 up to about 1.1 µM and inactive = higher.

Legend:
Test in all cases: DTP human tumour cell line panel, 48 h
786-0 = test system: 786-0
A498 = test system: A498
A549 = test system: A549
ACHN = test system: ACHN
BT-549 = test system: BT-549
CAKI-1 = test system: CAKI-1
CCRF-CEM = test system: CCRF-CEM
COLO 205 = test system: COLO 205
DU-145 = test system: DU-145
EKVX = test system: EKVX
HCC 2998 = test system: HCC 2998
HCT-116 = test system: HCT-116
HCT-15 = test system: HCT-15
HL-60 = test system: HL-60
HOP-62 = test system: HOP-62
HOP-92 = test system: HOP-92
HT-29 = test system: HT-29
Hs-578T = test system: Hs-578T
IGROV-1 = test system: IGROV-1
K562 = test system: K562
KM12 = test system: KM12
LOX IMVI = test system: LOX IMVI
MCF7 = test system: MCF7
MDA-MB-231 = test system: MDA-MB-231
MDA-MB-435 = test system: MDA-MB-435
MDA-N = test system: MDA-N
MOLT-4 = test system: MOLT-4
Malme-3M = test system: Malme-3M
NCI-H226 = test system: NCI-H226
NCI-H23 = test system: NCI-H23
NCI-H460 = test system: NCI-H460
NCI-H522 = test system: NCI-H522
NCI/ADR-RES = test system: NCI/ADR-RES
OVCAR-3 = test system: OVCAR-3
OVCAR-4 = test system: OVCAR-4
OVCAR-5 = test system: OVCAR-5
OVCAR-8 = test system: OVCAR-8
PC-3 = test system: PC-3
RPMI-8226 = test system: RPMI-8226
RXF 393 = test system: RXF 393
SF-268 = test system: SF-268
SF-295 = test system: SF-295
SF-539 = test system: SF-539
SK-MEL-28 = test system: SK-MEL-28
SK-MEL-2 = test system: SK-MEL-2
SK-MEL-5 = test system: SK-MEL-5
SK-OV-3 = test system: SK-OV-3
SN12C = test system: SN12C
SNB-19 = test system: SNB-19
SNB-75 = test system: SNB-75
SR = test system: SR
SW-620 = test system: SW-620
T47D = test system: T47D
TK-10 = test system: TK-10
U-251 = test system: U-251
UACC-257 = test system: UACC-257
UACC-62 = test system: UACC-62
UO-31 = test system: UO-31

Cc1cccc2c1C(=O)C(C1OC(=O)c3ccccc31)C2 (stereo not given)
GI50 (786-0): > 100 µM (inactive)
GI50 (A498): > 100 µM (inactive)
GI50 (A549): > 100 µM (inactive)
GI50 (ACHN): > 100 µM (inactive)
GI50 (BT-549): > 100 µM (inactive)
GI50 (CAKI-1): > 100 µM (inactive)
GI50 (CCRF-CEM): > 100 µM (inactive)
GI50 (COLO 205): > 100 µM (inactive)
GI50 (DU-145): > 100 µM (inactive)
GI50 (EKVX): > 100 µM (inactive)
GI50 (HCC 2998): > 100 µM (inactive)
GI50 (HCT-116): 90.6 µM (inactive)
GI50 (HCT-15): > 100 µM
GI50 (HL-60): > 100 µM (inactive)
GI50 (HOP-62): > 100 µM (inactive)
GI50 (HOP-92): > 100 µM (inactive)
GI50 (HT-29): > 100 µM (inactive)
GI50 (Hs-578T): 43.9 µM (inactive)
GI50 (IGROV-1): > 100 µM (inactive)
GI50 (K562): > 100 µM (inactive)
GI50 (KM12): > 100 µM (inactive)
GI50 (LOX IMVI): > 100 µM (inactive)
GI50 (MCF7): > 100 µM (inactive)
GI50 (MDA-MB-231): > 100 µM (inactive)
GI50 (MDA-MB-435): > 100 µM (inactive)
GI50 (MDA-N): > 100 µM (inactive)
GI50 (MOLT-4): > 100 µM (inactive)
GI50 (Malme-3M): > 100 µM (inactive)
GI50 (NCI-H226): > 100 µM (inactive)
GI50 (NCI-H23): > 100 µM (inactive)
GI50 (NCI-H460): > 100 µM (inactive)
GI50 (NCI-H522): > 100 µM (inactive)
GI50 (NCI/ADR-RES): > 100 µM (inactive)
GI50 (OVCAR-3): > 100 µM (inactive)
GI50 (OVCAR-4): > 100 µM (inactive)
GI50 (OVCAR-5): > 100 µM (inactive)
GI50 (OVCAR-8): > 100 µM (inactive)
GI50 (PC-3): > 100 µM (inactive)
GI50 (RPMI-8226): 92.5 µM (inactive)
GI50 (RXF 393): 45.6 µM (inactive)
GI50 (SF-268): 79.6 µM (inactive)
GI50 (SF-295): > 100 µM (inactive)
GI50 (SF-539): > 100 µM (inactive)
GI50 (SK-MEL-28): > 100 µM (inactive)
GI50 (SK-MEL-2): > 100 µM (inactive)
GI50 (SK-MEL-5): 95.5 µM (inactive)
GI50 (SK-OV-3): > 100 µM (inactive)
GI50 (SN12C): > 100 µM (inactive)
GI50 (SNB-19): > 100 µM (inactive)
GI50 (SNB-75): > 100 µM (inactive)
GI50 (SR): > 100 µM (inactive)
GI50 (SW-620): > 100 µM (inactive)
GI50 (T47D): > 100 µM (inactive)
GI50 (TK-10): > 100 µM (inactive)
GI50 (U-251): 61 µM (inactive)
GI50 (UACC-257): > 100 µM (inactive)
GI50 (UACC-62): 45.7 µM (inactive)
GI50 (UO-31): > 100 µM (inactive)

O=c1ccn(CC2(CO)CCCC2)c(=O)[nH]1
GI50 (786-0): > 100 µM (inactive)
GI50 (A498): 7.64 µM (inactive)
GI50 (A549): > 100 µM (inactive)
GI50 (ACHN): > 100 µM (inactive)
GI50 (BT-549): > 100 µM (inactive)
GI50 (CAKI-1): > 100 µM (inactive)
GI50 (CCRF-CEM): > 100 µM (inactive)
GI50 (COLO 205): > 100 µM (inactive)
GI50 (DU-145): > 100 µM (inactive)
GI50 (EKVX): > 100 µM (inactive)
GI50 (HCC 2998): > 100 µM (inactive)
GI50 (HCT-116): > 100 µM (inactive)
GI50 (HCT-15): > 100 µM
GI50 (HL-60): > 100 µM (inactive)
GI50 (HOP-62): > 100 µM (inactive)
GI50 (HOP-92): > 100 µM (inactive)
GI50 (HT-29): > 100 µM (inactive)
GI50 (Hs-578T): > 100 µM (inactive)
GI50 (IGROV-1): > 100 µM (inactive)
GI50 (K562): > 100 µM (inactive)
GI50 (KM12): > 100 µM (inactive)
GI50 (LOX IMVI): > 100 µM (inactive)
GI50 (MCF7): > 100 µM (inactive)
GI50 (MDA-MB-231): > 100 µM (inactive)
GI50 (MDA-MB-435): > 100 µM (inactive)
GI50 (MDA-N): > 100 µM (inactive)
GI50 (MOLT-4): > 100 µM (inactive)
GI50 (Malme-3M): > 100 µM (inactive)
GI50 (NCI-H226): > 100 µM (inactive)
GI50 (NCI-H23): > 100 µM (inactive)
GI50 (NCI-H460): > 100 µM (inactive)
GI50 (NCI-H522): > 100 µM (inactive)
GI50 (NCI/ADR-RES): > 100 µM (inactive)
GI50 (OVCAR-3): > 100 µM (inactive)
GI50 (OVCAR-4): > 100 µM (inactive)
GI50 (OVCAR-5): > 100 µM (inactive)
GI50 (OVCAR-8): > 100 µM (inactive)
GI50 (PC-3): > 100 µM (inactive)
GI50 (RPMI-8226): > 100 µM (inactive)
GI50 (RXF 393): > 100 µM (inactive)
GI50 (SF-268): > 100 µM (inactive)
GI50 (SF-295): > 100 µM (inactive)
GI50 (SF-539): > 100 µM (inactive)
GI50 (SK-MEL-28): > 100 µM (inactive)
GI50 (SK-MEL-2): > 100 µM (inactive)
GI50 (SK-MEL-5): > 100 µM (inactive)
GI50 (SK-OV-3): > 100 µM (inactive)
GI50 (SN12C): > 100 µM (inactive)
GI50 (SNB-75): > 100 µM (inactive)
GI50 (SR): > 100 µM (inactive)
GI50 (SW-620): > 100 µM (inactive)
GI50 (T47D): > 100 µM (inactive)
GI50 (TK-10): > 100 µM (inactive)
GI50 (U-251): > 100 µM (inactive)
GI50 (UACC-257): > 100 µM (inactive)
GI50 (UACC-62): > 100 µM (inactive)
GI50 (UO-31): > 100 µM (inactive)
